Where a name gives a salt, the structure may show the parent alone.
Test system: mice
Test: SmartCube in vivo neuropharmacological behavioral assay
Conditions: for minimal effective dose: Mus musculus, ip, dose having 50% or more total activity in SmartCube, i.p., read-out: MED (minimal effective dose); for AD: antidepressant, percent probability / AG: analgesic, percent probability / AP: antipsychotic, percent probability / AX: anxiolytic, percent probability / CE: cognitive enhancer, percent probability / HA: hallucinogenic, percent probability / MS: mood stabilizer, percent probability / PS, percent probability / SD: sedative hypnotic, percent probability / SE: side effects, percent probability / UN: uncharacterized CNS activity, percent probability / XG: anxiogenic, percent probability: SmartCube, i.p. 15 min before test, at the MED
Description: The compounds were evaluated for their CNS related properties (e.g., the treatment, prevention or diagnosis of CNS or CNS-related disorders and/or amelioration of symptoms) using neuropharmacological screening methods described in S. L. Roberts et al., Front. Neurosci. 2011, 5:103 (hereinafter referred to as “Roberts,” the contents of which are incorporated herein by reference in their entirety).
According to Roberts, intact systems are useful in detecting improvement in disease-relevant endpoints, because psychiatric diseases generally result from disorders of cell-cell communication or circuitry. The endpoints are typically behavioral in nature, often requiring human observation and interpretation. In order to test multiple compounds for behavioral effects relevant to neurological and psychiatric diseases and disorders, PsychoGenics, Inc. (Paramus, N.J. “PGI”) developed SmartCube®, an automated system in which behaviors of compound-treated mice are captured by digital video and analyzed with computer algorithms to facilitate testing of multiple compounds for behavioral effects relevant to psychiatric disease. (D. Brunner et al., Drug Discov. Today 2002, 7:S107-S112; Alexandrov et al., Eur. J. Pharmacol. 2015, 753:127-134; the contents of each of which are incorporated herein by reference in their entirety).
The SmartCube® system is described in Example 2.2 of U.S. Pat. No. 9,758,529 and Example 289 of WIPO Publication No. WO2018/023070, the contents of each of which are incorporated herein by reference in their entirety.
According to the present disclosure, compounds identified may be evaluated using the SmartCube® system. The results of such analysis correlate certain patterns or combinations of behaviors to CNS effects along a percent probability scale of 0-100 where zero (O) reflects the limit of quantitation (LOQ).
The compounds of the present disclosure were evaluated for their CNS related properties (e.g., the treatment, prevention or diagnosis of CNS or CNS-related disorders and/or amelioration of symptoms) using neuropharmacological screening methods described in S. L. Roberts et al., Front. Neurosci. 2011, 5:103 (hereinafter referred to as “Roberts,” the contents of which are incorporated herein by reference in their entirety).
The SmartCube® system described herein was utilized to compare the behavioral signature of a test compound to a database of behavioral signatures obtained using a large set of diverse reference compounds (including but not limited to antipsychotics, anxiolytics, antidepressants and bipolar disorder medicine), thereby predicting the neuropharmacological effects of a test compound by similarity to major classes of compounds. It produces an activity signature indicating the probability that the activity of the test compound at the administered dose matches a given class of neuropharmacological agents. The test compound is simultaneously compared against multiple classes of agents; thus, a separate probability is generated for each behavioral effect measured (such as but not limited to anxiolytic activity and analgesic activity).
The compounds of the present disclosure were dissolved in a mixture of Pharmasolve™ (N-methyl-2-pyrrolidone (NMP)) and were injected i.p. 15 min. before the behavioral test. For each compound, injections were administered at different dose levels (e.g., 0.3, 1, 3, 10 and 30 mg per kg (mpk)). A compound's minimal effective dose (MED; see Table 3) is a measure of the compound's potency. The MED was defined as the dose (in mpk) having 50% or more total activity in SmartCube®. For each behavioral effect measured, results at the MED are presented. CNS activities of the compounds were recorded (see Table 2). In Table 1, a key to the percent probabilities (probability×100) for each behavioral effect (“X”) are defined provided, where LOQ is the limit of quantification.

| Compound | minimal effective dose [mg/kg] | AD: antidepressant, percent probability | AG: analgesic, percent probability | AP: antipsychotic, percent probability | AX: anxiolytic, percent probability | CE: cognitive enhancer, percent probability | HA: hallucinogenic, percent probability | MS: mood stabilizer, percent probability | PS, percent probability | SD: sedative hypnotic, percent probability | SE: side effects, percent probability | UN: uncharacterized CNS activity, percent probability | XG: anxiogenic, percent probability |
| --- | --- | --- | --- | --- | --- | --- | --- | --- | --- | --- | --- | --- | --- |
| Cc1ccc2c(c1)C1CCC2N1C(C)C (stereo not drawn) [Compound 21, 4-Methyl-11-(propan-2-yl)-11-azatricyclo[6.2.1.0^2,7]undeca-2,4,6-triene hydrochloride] | 10 to 30 | ++ (5% ≤ X < 25%) | + (LOQ ≤ X < 5%) | + (LOQ ≤ X < 5%) | ++ (5% ≤ X < 25%) | + (LOQ ≤ X < 5%) | + (LOQ ≤ X < 5%) | + (LOQ ≤ X < 5%) | + (LOQ ≤ X < 5%) | + (LOQ ≤ X < 5%) | ++++ (50% ≤ X <1 00%) | ++ (5% ≤ X < 25%) | + (LOQ ≤ X < 5%) |
| CC(C)C(C)N1C2CCC1c1ccccc12 (stereo not drawn) [Compound 47, 11-(3-Methylbutan-2-yl)-11-azatricyclo[6.2.1.0^2,7]undeca-2,4,6-triene hydrochloride] | 10 to 30 | ++++ (50% ≤ X <1 00%) | + (LOQ ≤ X < 5%) | + (LOQ ≤ X < 5%) | + (LOQ ≤ X < 5%) | + (LOQ ≤ X < 5%) | + (LOQ ≤ X < 5%) | + (LOQ ≤ X < 5%) | + (LOQ ≤ X < 5%) | + (LOQ ≤ X < 5%) | + (LOQ ≤ X < 5%) | ++ (5% ≤ X < 25%) | + (LOQ ≤ X < 5%) |
| Cc1cccc2c1C1CCC2N1C(C)C (stereo not drawn) [Compound 31, 3-Methyl-11-(propan-2-yl)-11-azatricyclo[6.2.1.0^2,7]undeca-2,4,6-triene hydrochloride] | 10 to 30 | ++ (5% ≤ X < 25%) | ++ (5% ≤ X < 25%) | + (LOQ ≤ X < 5%) | ++ (5% ≤ X < 25%) | + (LOQ ≤ X < 5%) | + (LOQ ≤ X < 5%) | + (LOQ ≤ X < 5%) | + (LOQ ≤ X < 5%) | ++ (5% ≤ X < 25%) | + (LOQ ≤ X < 5%) | +++ (25% ≤ X < 50%) | + (LOQ ≤ X < 5%) |
| CC1=C(C)C2c3ccccc3C1N2C(C)C [Compound 60, 9,10-Dimethyl-11-(propan-2-yl)-11-azatricyclo[6.2.1.0^2,7]undeca-2,4,6,9-tetraene hydrochloride] | 10 to 30 | ++++ (50% ≤ X <1 00%) | ++ (5% ≤ X < 25%) | + (LOQ ≤ X < 5%) | + (LOQ ≤ X < 5%) | + (LOQ ≤ X < 5%) | + (LOQ ≤ X < 5%) | + (LOQ ≤ X < 5%) | ++ (5% ≤ X < 25%) | + (LOQ ≤ X < 5%) | + (LOQ ≤ X < 5%) | + (LOQ ≤ X < 5%) | + (LOQ ≤ X < 5%) |
| Clc1cccc2c1C1CCC2N1 (stereo not drawn) [Compound 13, 3-Chloro-11-azatricyclo[6.2.1.0^2,7]undeca-2,4,6-triene hydrochloride] | > 30 | + (LOQ ≤ X < 5%) | + (LOQ ≤ X < 5%) | + (LOQ ≤ X < 5%) | ++ (5% ≤ X < 25%) | ++ (5% ≤ X < 25%) | + (LOQ ≤ X < 5%) | + (LOQ ≤ X < 5%) | + (LOQ ≤ X < 5%) | + (LOQ ≤ X < 5%) | + (LOQ ≤ X < 5%) | +++ (25% ≤ X < 50%) | + (LOQ ≤ X < 5%) |
| C1=CC2c3ccccc3C1N2C1CC1 [Compound 56, 11-Cyclopropyl-11-azatricyclo[6.2.1.0^2,7]undeca-2,4,6,9-tetraene hydrochloride] | 10 to 30 | ++ (5% ≤ X < 25%) | + (LOQ ≤ X < 5%) | ++ (5% ≤ X < 25%) | ++ (5% ≤ X < 25%) | ++ (5% ≤ X < 25%) | + (LOQ ≤ X < 5%) | + (LOQ ≤ X < 5%) | + (LOQ ≤ X < 5%) | + (LOQ ≤ X < 5%) | + (LOQ ≤ X < 5%) | +++ (25% ≤ X < 50%) | + (LOQ ≤ X < 5%) |
| C1=CC2c3ccccc3C1N2C1CCCC1 [Compound 54, 11-Cyclopentyl-11-azatricyclo[6.2.1.0^2,7]undeca-2,4,6,9-tetraene hydrochloride] | 10 to 30 | ++++ (50% ≤ X <1 00%) | ++ (5% ≤ X < 25%) | + (LOQ ≤ X < 5%) | ++ (5% ≤ X < 25%) | + (LOQ ≤ X < 5%) | + (LOQ ≤ X < 5%) | + (LOQ ≤ X < 5%) | ++ (5% ≤ X < 25%) | + (LOQ ≤ X < 5%) | + (LOQ ≤ X < 5%) | ++ (5% ≤ X < 25%) | + (LOQ ≤ X < 5%) |
| COc1cccc2c1C1CCC2N1C(C)C (stereo not drawn) [Compound 18, 3-Methoxy-11-(propan-2-yl)-11-azatricyclo[6.2.1.0^2,7]undeca-2,4,6-triene hydrochloride] | 10 to 30 | ++ (5% ≤ X < 25%) | + (LOQ ≤ X < 5%) | + (LOQ ≤ X < 5%) | ++ (5% ≤ X < 25%) | ++ (5% ≤ X < 25%) | + (LOQ ≤ X < 5%) | + (LOQ ≤ X < 5%) | + (LOQ ≤ X < 5%) | ++ (5% ≤ X < 25%) | +++ (25% ≤ X < 50%) | + (LOQ ≤ X < 5%) | + (LOQ ≤ X < 5%) |
| CC(C)N1C2C=CC1c1ccccc12 [Compound 53, 11-(Propan-2-yl)-11-azatricyclo[6.2.1.0^2,7]undeca-2,4,6,9-tetraene hydrochloride] | 10 to 30 | ++ (5% ≤ X < 25%) | ++ (5% ≤ X < 25%) | + (LOQ ≤ X < 5%) | ++ (5% ≤ X < 25%) | + (LOQ ≤ X < 5%) | + (LOQ ≤ X < 5%) | + (LOQ ≤ X < 5%) | ++ (5% ≤ X < 25%) | + (LOQ ≤ X < 5%) | + (LOQ ≤ X < 5%) | ++ (5% ≤ X < 25%) | + (LOQ ≤ X < 5%) |

Source: patent US20230109801A1 (Blue Oak Pharmaceuticals, Inc., priority 2020, published 2023)
